Data as given in patent US10351546B2, “Pyridin-3-yl acetic acid derivatives as inhibitors of human immunodeficiency virus replication” (priority 2015, dated 2019).

System: NL-RLuc virus
Test: Inhibition of HIV replication (NL-RLuc luciferase reporter virus in MT-2 cells)
Format: cell-based
Conditions: Human immunodeficiency virus 1, MT2, 120 h, read-out: Activity
Source text: Inhibition of HIV replication: A recombinant NL-RLuc proviral clone was constructed in which a section of the nef gene form NL4-3 was replaced with the Renilla Luciferase gene. This virus is fully infectious and can undergo multiple cycles of replication in cell culture. In addition, the luciferous reporter provides a simple and easy method for quantitating the extent of virus growth and consequently, the antiviral activity of test compounds. The plasmid pNLRLuc contains the proviral NL-Rluc DNA cloned into pUC18 at the PvuII site. The NL-RLuc virus was prepared by transfection of 293T cells with the plasmid pNLRLuc. Transfections were performed using the LipofectAMINE PLUS kit form Invitrogen (Carlsbad, Calif.) according to the manufacturer and the virus generated was titered in MT-2 cells. For susceptibility analyses, the titrated virus was used to infect MT-2 cells in the presence of compound, and after 5 days of incubation, cells were processed and quantitated for virus growth by the amount of expressed luciferase. Assay media was RPMI 1640 supplemented with 10% heat inactivated fetal bovine serum (FBS), 100 units/ml penicillin G/100 units/ml streptomycin, 10 mM HEPES buffer pH 7.55 and 2 mM L-glutamine. The results form at least 2 experiments were used to calculate the EC50 values. Luciferase was quantitated using the Dual Luciferase kit form Promega (Madison, Wis.). Susceptibility of viruses to compounds was determined by incubation in the presence of serial dilutions of the compound. The 50% effective concentration (EC50) was calculated by using the exponential form of the median effect equation where (Fa)=1/[1+(ED50/drug conc.)^m](Johnson V A, Byington R T. Infectivity Assay. In Techniques in HIV Research. ed. Aldovini A, Walker B D. 71-76. New York: Stockton Press. 1990). Activity equal to A refers to a compound having an EC50≤100 nM, while B and C denote compounds having an EC50 between 100 nM and 1 uM (B) or >1 uM (C).

SMILES	EC50 [µM]
COCCNCc1nc(C)c([C@H](OC(C)(C)C)C(=O)O)c(N2CCC(C)(C)CC2)c1-c1ccc2c(c1)CCN(Cc1ccc(F)cc1C)C2 [Example 116, (S)-2-(tert-Butoxy)-2-(4-(4,4-dimethylpiperidin-1-yl)-5-(2-(4-fluoro-2-methylbenzyl)-1,2,3,4-tetrahydroisoquinolin-6-yl)-6-(((2-methoxyethyl)amino)methyl)-2-methylpyridin-3-yl)acetic acid]	< 0.1
Cc1cccc(Cl)c1CN1CCc2cc(-c3c(CN4CCCCC4)nc(C)c([C@H](OC(C)(C)C)C(=O)O)c3N3CCC(C)(C)CC3)ccc2C1 [Example 177, (S)-2-(tert-Butoxy)-2-(5-(2-(2-chloro-6-methylbenzyl)-1,2,3,4-tetrahydroisoquinolin-6-yl)-4-(4,4-dimethylpiperidin-1-yl)-2-methyl-6-(piperidin-1-ylmethyl)pyridin-3-yl)acetic acid]	< 0.1
Cc1cccc(Cl)c1CN1CCc2cc(-c3c(CN4CCC5(CC4)CC5)nc(C)c([C@H](OC(C)(C)C)C(=O)O)c3N3CCC(C)(C)CC3)ccc2C1 [Example 178, (S)-2-(6-((6-Azaspiro[2.5]octan-6-yl)methyl)-5-(2-(2-chloro-6-methylbenzyl)-1,2,3,4-tetrahydroisoquinolin-6-yl)-4-(4,4-dimethylpiperidin-1-yl)-2-methylpyridin-3-yl)-2-(tert-butoxy)acetic acid]	< 0.1
Cc1ncn(Cc2nc(C)c([C@H](OC(C)(C)C)C(=O)O)c(N3CCC(C)(C)CC3)c2-c2ccc(OCCc3ccc(F)cc3)cc2)n1 [Example 31, (S)-2-(tert-Butoxy)-2-(4-(4,4-dimethylpiperidin-1-yl)-5-(4-(4-fluorophenethoxy)phenyl)-2-methyl-6-((3-methyl-1H-1,2,4-triazol-1-yl)methyl)pyridin-3-yl)acetic acid]	< 0.1
Cc1nc(COCN2CCCC2=O)c(-c2ccc(OCCc3ccc(F)cc3)cc2)c(N2CCC(C)(C)CC2)c1[C@H](OC(C)(C)C)C(=O)O [Example 26, (S)-2-(tert-Butoxy)-2-(4-(4,4-dimethylpiperidin-1-yl)-5-(4-(4-fluorophenethoxy)phenyl)-2-methyl-6-(((2-oxopyrrolidin-1-yl)methoxy)methyl)pyridin-3-yl)acetic acid]	< 0.1
Cc1cc(F)ccc1CN1CCc2cc(-c3c(CN4CCSCC4)nc(C)c([C@H](OC(C)(C)C)C(=O)O)c3N3CCC(C)(C)CC3)ccc2C1 [Example 122, (S)-2-(tert-Butoxy)-2-(4-(4,4-dimethylpiperidin-1-yl)-5-(2-(4-fluoro-2-methylbenzyl)-1,2,3,4-tetrahydroisoquinolin-6-yl)-2-methyl-6-(thiomorpholinomethyl)pyridin-3-yl)acetic acid]	< 0.1
Cc1nc(/C=C/COC(C)C)c(-c2ccc(OCCc3ccc(F)cc3)cc2)c(N2CCC(C)(C)CC2)c1[C@H](OC(C)(C)C)C(=O)O [Example 54, (S,E)-2-(tert-Butoxy)-2-(4-(4,4-dimethylpiperidin-1-yl)-5-(4-(4-fluorophenethoxy)phenyl)-6-(3-isopropoxyprop-1-en-1-yl)-2-methylpyridin-3-yl)acetic acid]	< 0.1
Cc1cccc(Cl)c1CN1CCc2cc(-c3c(CO)nc(C)c([C@H](OC(C)(C)C)C(=O)O)c3N3CCC(C)(C)CC3)ccc2C1 [Example 165, (S)-2-(tert-butoxy)-2-(5-(2-(2-chloro-6-methylbenzyl)-1,2,3,4-tetrahydroisoquinolin-6-yl)-4-(4,4-dimethylpiperidin-1-yl)-6-(hydroxymethyl)-2-methylpyridin-3-yl)acetic acid]	< 0.1
Cc1cc(F)ccc1CN1CCc2cc(-c3c(CN4CCC(F)CC4)nc(C)c([C@H](OC(C)(C)C)C(=O)O)c3N3CCC(C)(C)CC3)ccc2C1 [Example 130, (S)-2-(tert-Butoxy)-2-(4-(4,4-dimethylpiperidin-1-yl)-5-(2-(4-fluoro-2-methylbenzyl)-1,2,3,4-tetrahydroisoquinolin-6-yl)-6-((4-fluoropiperidin-1-yl)methyl)-2-methylpyridin-3-yl)acetic acid]	< 0.1
Cc1nc(CN2CCC(O)CC2)c(-c2ccc(OCCc3ccc(F)cc3)cc2)c(N2CCC(C)(C)CC2)c1[C@H](OC(C)(C)C)C(=O)O [Example 87, (S)-2-(tert-Butoxy)-2-(4-(4,4-dimethylpiperidin-1-yl)-5-(4-(4-fluorophenethoxy)phenyl)-6-((4-hydroxypiperidin-1-yl)methyl)-2-methylpyridin-3-yl)acetic acid]	< 0.1
Cc1cc(F)ccc1CN1CCc2cc(-c3c(CNCC4CCOCC4)nc(C)c([C@H](OC(C)(C)C)C(=O)O)c3N3CCC(C)(C)CC3)ccc2C1 [Example 127, (S)-2-(tert-Butoxy)-2-(4-(4,4-dimethylpiperidin-1-yl)-5-(2-(4-fluoro-2-methylbenzyl)-1,2,3,4-tetrahydroisoquinolin-6-yl)-2-methyl-6-((((tetrahydro-2H-pyran-4-yl)methyl)amino)methyl)pyridin-3-yl)acetic acid]	< 0.1
Cc1cc(F)ccc1CN1CCc2cc(-c3c(Cn4ncnc4C)nc(C)c([C@H](OC(C)(C)C)C(=O)O)c3N3CCC(C)(C)CC3)ccc2C1 [Example 145, (S)-2-(tert-butoxy)-2-(4-(4,4-dimethylpiperidin-1-yl)-5-(2-(4-fluoro-2-methylbenzyl)-1,2,3,4-tetrahydroisoquinolin-6-yl)-2-methyl-6-((5-methyl-1H-1,2,4-triazol-1-yl)methyl)pyridin-3-yl)acetic acid]	< 0.1
Cc1nc(/C=C\COC(C)C)c(-c2ccc(OCCc3ccc(F)cc3)cc2)c(N2CCC(C)(C)CC2)c1[C@H](OC(C)(C)C)C(=O)O [Example 55, (S,Z)-2-(tert-Butoxy)-2-(4-(4,4-dimethylpiperidin-1-yl)-5-(4-(4-fluorophenethoxy)phenyl)-6-(3-isopropoxyprop-1-en-1-yl)-2-methylpyridin-3-yl)acetic acid]	< 0.1
Cc1ncc([C@H](OC(C)(C)C)C(=O)O)c(N2CCC(C)(C)CC2)c1-c1ccc(OCCc2ccc(F)cc2)cc1 [Example 182, (S)-2-(tert-Butoxy)-2-(4-(4,4-dimethylpiperidin-1-yl)-5-(4-(4-fluorophenethoxy)phenyl)-6-methylpyridin-3-yl)acetic acid]	< 0.1
Cc1cc(F)ccc1CN1CCc2cc(-c3c(CN4CCC(C)(C)CC4)nc(C)c([C@H](OC(C)(C)C)C(=O)O)c3N3CCC(C)(C)CC3)ccc2C1 [Example 120, (S)-2-(tert-Butoxy)-2-(4-(4,4-dimethylpiperidin-1-yl)-6-((4,4-dimethylpiperidin-1-yl)methyl)-5-(2-(4-fluoro-2-methylbenzyl)-1,2,3,4-tetrahydroisoquinolin-6-yl)-2-methylpyridin-3-yl)acetic acid]	< 0.1
Cc1nc(COC(C)C)c(-c2ccc(OCCc3ccc(F)cc3)cc2)c(N2CCC(C)(C)CC2)c1[C@H](OC(C)(C)C)C(=O)O [Example 9, (S)-2-(tert-Butoxy)-2-(4-(4,4-dimethylpiperidin-1-yl)-5-(4-(4-fluorophenethoxy)phenyl)-6-(isopropoxymethyl)-2-methylpyridin-3-yl)acetic acid]	< 0.1
Cc1nc(C(F)F)c(-c2ccc(OCCc3ccc(F)cc3)cc2)c(N2CCC(C)(C)CC2)c1[C@H](OC(C)(C)C)C(=O)O [Example 4, (S)-2-(tert-Butoxy)-2-(6-(difluoromethyl)-4-(4,4-dimethylpiperidin-1-yl)-5-(4-(4-fluorophenethoxy)phenyl)-2-methylpyridin-3-yl)acetic acid]	< 0.1
Cc1nc(CNCC2CCOCC2)c(-c2ccc(OCCc3ccc(F)cc3)cc2)c(N2CCC(C)(C)CC2)c1[C@H](OC(C)(C)C)C(=O)O [Example 67, (S)-2-(tert-Butoxy)-2-(4-(4,4-dimethylpiperidin-1-yl)-5-(4-(4-fluorophenethoxy)phenyl)-2-methyl-6-((((tetrahydro-2H-pyran-4-yl)methyl)amino)methyl)pyridin-3-yl)acetic acid]	< 0.1
Cc1cc(F)ccc1CN1CCc2cc(-c3c(CN4CCCCC4)nc(C)c([C@H](OC(C)(C)C)C(=O)O)c3N3CCC(C)(C)CC3)ccc2C1 [Example 119, (S)-2-(tert-Butoxy)-2-(4-(4,4-dimethylpiperidin-1-yl)-5-(2-(4-fluoro-2-methylbenzyl)-1,2,3,4-tetrahydroisoquinolin-6-yl)-2-methyl-6-(piperidin-1-ylmethyl)pyridin-3-yl)acetic acid]	< 0.1
Cc1nc(COc2cccc(Cl)c2)c(-c2ccc(OCCc3ccc(F)cc3)cc2)c(N2CCC(C)(C)CC2)c1[C@H](OC(C)(C)C)C(=O)O [Example 15, (S)-2-(tert-Butoxy)-2-(6-((3-chlorophenoxy)methyl)-4-(4,4-dimethylpiperidin-1-yl)-5-(4-(4-fluorophenethoxy)phenyl)-2-methylpyridin-3-yl)acetic acid]	< 0.1

Same assay, conditions: Human immunodeficiency virus 1, MT2, 120 h, read-out: EC50 μM

SMILES	EC50 [µM]
Cc1ncn(Cc2nc(C)c([C@H](OC(C)(C)C)C(=O)O)c(N3CCC(C)(C)CC3)c2-c2ccc(OCCc3ccc(F)cc3)cc2)n1 [Example 31, (S)-2-(tert-Butoxy)-2-(4-(4,4-dimethylpiperidin-1-yl)-5-(4-(4-fluorophenethoxy)phenyl)-2-methyl-6-((3-methyl-1H-1,2,4-triazol-1-yl)methyl)pyridin-3-yl)acetic acid]	0.009
Cc1nc(COc2cccc(Cl)c2)c(-c2ccc(OCCc3ccc(F)cc3)cc2)c(N2CCC(C)(C)CC2)c1[C@H](OC(C)(C)C)C(=O)O [Example 15, (S)-2-(tert-Butoxy)-2-(6-((3-chlorophenoxy)methyl)-4-(4,4-dimethylpiperidin-1-yl)-5-(4-(4-fluorophenethoxy)phenyl)-2-methylpyridin-3-yl)acetic acid]	0.051
